Values of other authors, collected in US20250295115A1, “USE OF HERBICIDAL COMPOSITIONS BASED ON L-GLUFOSINATE IN TOLERANT FIELD CROPS” (BASF SE, priority 2017, published 2025).

Test system: perennial weeds and brush
Conditions: as taught by U.S. Pat. No. 4,265,654

SMILES: CP(=O)(O)CC[C@H](N)C(=O)O (single isomer, unassigned) [L-isomer]
- Effectiveness compared with the racemic acid: twice as effective
